Laboratory results: patent US9708314B2, “Heterocyclic amide compound” (NISSAN CHEMICAL INDUSTRIES, LTD., priority 2013, dated 2017)

Assays:
Assay type in all cases: in vivo
Leptochloa chinensis = assay: Test Example 3: herbicidal effect by application to foliage (Wagner pot, water depth 0.1-0.5 cm); conditions: Nineteenth Table; application to foliage; application herbicide amount 320 g/ha
Summary of the method: (§1)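 Rice-field weeds and directly sown rice were grown 14 days in flooded alluvial soil (water depth 0.1–0.5 cm) at 25–30 °C in a greenhouse. An emulsion formulation diluted to the stated g/ha rate was sprayed onto stems and leaves. Effects were scored on a 0–5 scale (herbicidal ratio bands) three weeks after treatment.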

[1] = test system: Echinochloa crus-galli var. crus-galli; assay: as above; conditions: Nineteenth Table; application to foliage; application herbicide amount 320 g/ha
Summary of the method: as §1

Cyperus difformis = assay: as above; conditions: Nineteenth Table; application to foliage; application herbicide amount 320 g/ha
Summary of the method: as §1

Chenopodium album = assay: Test Example 4: herbicidal effect by application to foliage (diluvial soil, plastic box); conditions: application to foliage, application herbicide amount 320 g/ha
Summary of the method: (§2)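 Greenhouse plants (25° C. to 30° C., 14 d, diluvial soil) receive a foliar spray of water-diluted emulsifiable formulation at defined g/ha. Grading after 3 weeks uses a six-step herbicidal-ratio scale, with 4 covering 70% to <90% and 1 covering 5% to <20%.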

Galium spurium = assay: as above; conditions: application to foliage, application herbicide amount 320 g/ha
Summary of the method: as §2

Amaranthus retroflexus = assay: as above; conditions: application to foliage, application herbicide amount 320 g/ha
Summary of the method: as §2

Digitaria ciliaris = assay: as above; conditions: application to foliage, application herbicide amount 320 g/ha
Summary of the method: as §2

[2] = test system: Echinochloa crus-galli var. crus-galli; assay: as above; conditions: application to foliage, application herbicide amount 320 g/ha
Summary of the method: as §2

Avena fatua = assay: as above; conditions: application to foliage, application herbicide amount 320 g/ha
Summary of the method: as §2

Setaria viridis = assay: as above; conditions: application to foliage, application herbicide amount 320 g/ha
Summary of the method: as §2

Stellaria media = assay: as above; conditions: application to foliage, application herbicide amount 320 g/ha
Summary of the method: as §2

Apera spica-venti. = assay: as above; conditions: application to foliage, application herbicide amount 320 g/ha
Summary of the method: as §2

Alopecurus myosuroides = assay: as above; conditions: application to foliage, application herbicide amount 320 g/ha
Summary of the method: as §2

Lolium multiflorum Lam. = assay: as above; conditions: application to foliage, application herbicide amount 320 g/ha
Summary of the method: as §2

Abutilon theophrasti = assay: as above; conditions: application to foliage, application herbicide amount 320 g/ha
Summary of the method: as §2

Veronica persica = assay: as above; conditions: application to foliage, application herbicide amount 320 g/ha
Summary of the method: as §2

[3] = test system: Beta vulgaris ssp. vulgaris; assay: Test Example 4: effect on crop by application to foliage (diluvial soil, plastic box); conditions: application to foliage, application herbicide amount 320 g/ha
Summary of the method: as §2

[4] = test system: directly sowed Oryza sativa; assay: as above; conditions: application to foliage, application herbicide amount 320 g/ha
Summary of the method: as §2

Brassica campestris L. = assay: as above; conditions: application to foliage, application herbicide amount 320 g/ha
Summary of the method: as §2

Triticum aestivum = assay: as above; conditions: application to foliage, application herbicide amount 320 g/ha
Summary of the method: as §2

Zea mays = assay: as above; conditions: application to foliage, application herbicide amount 320 g/ha
Summary of the method: as §2

Glycine max = assay: as above; conditions: application to foliage, application herbicide amount 320 g/ha
Summary of the method: as §2

[5] = test system: directly sowed Oryza sativa; assay: Test Example 3: effect on crop by application to foliage (Wagner pot, water depth 0.1-0.5 cm); conditions: Nineteenth Table; application to foliage; application herbicide amount 320 g/ha
Summary of the method: as §1

With `COCc1nnc2c(C(=O)Nc3nnnn3C)ccc(C(F)(F)F)n12` [2-010, 3-(Methoxymethyl)-N-(1-methyl-1H-tetrazol-5-yl)-5-(trifluoromethyl)-[1,2,4]triazol o[4,3-a]pyridine-8-carboxamide] the “D (herbicidal effect grade)” value (Leptochloa chinensis) was 5 (Herbicidal ratio of 90% or more (almost completely withered)), the “H (herbicidal effect grade)” value [1] was 5 (Herbicidal ratio of 90% or more (almost completely withered)) and the “E (herbicidal effect grade)” value (Cyperus difformis) was 5 (Herbicidal ratio of 90% or more (almost completely withered)). The “O: herbicidal effect on Chenopodium album” value (shortened to “O: herbicidal effect”) (Chenopodium album) was 5 (Herbicidal ratio of 90% or more (almost completely withered)), the “Q: herbicidal effect on Galium spurium” value (Galium spurium) was 4 (Herbicidal ratio of 70% or more and less than 90%) and the “N: herbicidal effect on Amaranthus retroflexus” value (“N: herbicidal effect” below) (Amaranthus retroflexus) was 5 (Herbicidal ratio of 90% or more (almost completely withered)). The “F: herbicidal effect on Digitaria ciliaris” value (“F: herbicidal effect” below) (Digitaria ciliaris) was 4 (Herbicidal ratio of 70% or more and less than 90%), the “H: herbicidal effect on Echinochloa crus-galli var. crus-galli” value (“H: herbicidal effect” below) [2] was 5 (Herbicidal ratio of 90% or more (almost completely withered)) and the “I: herbicidal effect on Avena fatua” value (Avena fatua) was 4 (Herbicidal ratio of 70% or more and less than 90%). For the same compound, the “G: herbicidal effect on Setaria viridis” value (Setaria viridis) was 3 (Herbicidal ratio of 40% or more and less than 70%), the “P: herbicidal effect on Stellaria media” value (Stellaria media) was 5 (Herbicidal ratio of 90% or more (almost completely withered)) and the “L: herbicidal effect on Apera spica-venti.” value (“L: herbicidal effect” below) (Apera spica-venti.) was 2 (Herbicidal ratio of 20% or more and less than 40%). The “J: herbicidal effect on Alopecurus myosuroides” value (“J: herbicidal effect” below) (Alopecurus myosuroides) was 3 (Herbicidal ratio of 40% or more and less than 70%), the “K: herbicidal effect on Lolium multiflorum Lam.” value (“K: herbicidal effect” below) (Lolium multiflorum Lam.) was 3 (Herbicidal ratio of 40% or more and less than 70%) and the “M: herbicidal effect on Abutilon theophrasti” value (from here on “M: herbicidal effect”) (Abutilon theophrasti) was 5 (Herbicidal ratio of 90% or more (almost completely withered)). For the same compound, the “R: herbicidal effect on Veronica persica” value (Veronica persica) was 5 (Herbicidal ratio of 90% or more (almost completely withered)), the “f: effect on crop, Beta vulgaris ssp. vulgaris” value (“f: effect on crop” for short) [3] was 5 (Herbicidal ratio of 90% or more (almost completely withered)) and the “b: effect on crop, directly sowed Oryza sativa” value (“b: effect on crop” below) [4] was 5 (Herbicidal ratio of 90% or more (almost completely withered)). The “g: effect on crop, Brassica campestris L.” value (shortened to “g: effect on crop”) (Brassica campestris L.) was 5 (Herbicidal ratio of 90% or more (almost completely withered)), the “e: effect on crop, Triticum aestivum” value (Triticum aestivum) was 3 (Herbicidal ratio of 40% or more and less than 70%) and the “c: effect on crop, Zea mays” value (Zea mays) was 3 (Herbicidal ratio of 40% or more and less than 70%). The “d: effect on crop, Glycine max” value (Glycine max) was 4 (Herbicidal ratio of 70% or more and less than 90%) and the “b (effect on crop grade)” value [5] was 5 (Herbicidal ratio of 90% or more (almost completely withered)).
With `COc1ccc(-c2nnc3c(C(=O)Nc4nnnn4C)ccc(C(F)(F)F)n23)cc1` [2-011] the “D (herbicidal effect grade)” value (Leptochloa chinensis) was 5 (Herbicidal ratio of 90% or more (almost completely withered)), the “H (herbicidal effect grade)” value [1] was 5 (Herbicidal ratio of 90% or more (almost completely withered)) and the “E (herbicidal effect grade)” value (Cyperus difformis) was 5 (Herbicidal ratio of 90% or more (almost completely withered)). For the same compound, the “O: herbicidal effect” value (Chenopodium album) was 5 (Herbicidal ratio of 90% or more (almost completely withered)), the “Q: herbicidal effect on Galium spurium” value (Galium spurium) was 3 (Herbicidal ratio of 40% or more and less than 70%) and the “N: herbicidal effect” value (Amaranthus retroflexus) was 5 (Herbicidal ratio of 90% or more (almost completely withered)). For the same compound, the “F: herbicidal effect” value (Digitaria ciliaris) was 5 (Herbicidal ratio of 90% or more (almost completely withered)), the “H: herbicidal effect” value [2] was 5 (Herbicidal ratio of 90% or more (almost completely withered)) and the “I: herbicidal effect on Avena fatua” value (Avena fatua) was 3 (Herbicidal ratio of 40% or more and less than 70%). The “G: herbicidal effect on Setaria viridis” value (Setaria viridis) was 3 (Herbicidal ratio of 40% or more and less than 70%), the “P: herbicidal effect on Stellaria media” value (Stellaria media) was 5 (Herbicidal ratio of 90% or more (almost completely withered)) and the “L: herbicidal effect” value (Apera spica-venti.) was 3 (Herbicidal ratio of 40% or more and less than 70%). The “J: herbicidal effect” value (Alopecurus myosuroides) was 3 (Herbicidal ratio of 40% or more and less than 70%), the “K: herbicidal effect” value (Lolium multiflorum Lam.) was 2 (Herbicidal ratio of 20% or more and less than 40%) and the “M: herbicidal effect” value (Abutilon theophrasti) was 5 (Herbicidal ratio of 90% or more (almost completely withered)). For the same compound, the “R: herbicidal effect on Veronica persica” value (Veronica persica) was 5 (Herbicidal ratio of 90% or more (almost completely withered)), the “f: effect on crop” value [3] was 5 (Herbicidal ratio of 90% or more (almost completely withered)) and the “b: effect on crop” value [4] was 5 (Herbicidal ratio of 90% or more (almost completely withered)). For the same compound, the “g: effect on crop” value (Brassica campestris L.) was 1 (Herbicidal ratio of 5% or more and less than 20%), the “e: effect on crop, Triticum aestivum” value (Triticum aestivum) was 1 (Herbicidal ratio of 5% or more and less than 20%) and the “c: effect on crop, Zea mays” value (Zea mays) was 1 (Herbicidal ratio of 5% or more and less than 20%). The “d: effect on crop, Glycine max” value (Glycine max) was 4 (Herbicidal ratio of 70% or more and less than 90%) and the “b (effect on crop grade)” value [5] was 5 (Herbicidal ratio of 90% or more (almost completely withered)).
For `Cn1nnnc1NC(=O)c1ccc(C(F)(F)F)n2c(-c3ccc(Cl)cc3)nnc12` [2-012], the “D (herbicidal effect grade)” value (Leptochloa chinensis) was 5 (Herbicidal ratio of 90% or more (almost completely withered)), the “H (herbicidal effect grade)” value [1] was 4 (Herbicidal ratio of 70% or more and less than 90%) and the “E (herbicidal effect grade)” value (Cyperus difformis) was 5 (Herbicidal ratio of 90% or more (almost completely withered)). The “O: herbicidal effect” value (Chenopodium album) was 5 (Herbicidal ratio of 90% or more (almost completely withered)), the “Q: herbicidal effect on Galium spurium” value (Galium spurium) was 4 (Herbicidal ratio of 70% or more and less than 90%) and the “N: herbicidal effect” value (Amaranthus retroflexus) was 5 (Herbicidal ratio of 90% or more (almost completely withered)). The “F: herbicidal effect” value (Digitaria ciliaris) was 4 (Herbicidal ratio of 70% or more and less than 90%), the “H: herbicidal effect” value [2] was 4 (Herbicidal ratio of 70% or more and less than 90%) and the “I: herbicidal effect on Avena fatua” value (Avena fatua) was 3 (Herbicidal ratio of 40% or more and less than 70%). The “G: herbicidal effect on Setaria viridis” value (Setaria viridis) was 1 (Herbicidal ratio of 5% or more and less than 20%), the “P: herbicidal effect on Stellaria media” value (Stellaria media) was 5 (Herbicidal ratio of 90% or more (almost completely withered)) and the “L: herbicidal effect” value (Apera spica-venti.) was 2 (Herbicidal ratio of 20% or more and less than 40%). For the same compound, the “J: herbicidal effect” value (Alopecurus myosuroides) was 2 (Herbicidal ratio of 20% or more and less than 40%), the “K: herbicidal effect” value (Lolium multiflorum Lam.) was 2 (Herbicidal ratio of 20% or more and less than 40%) and the “M: herbicidal effect” value (Abutilon theophrasti) was 5 (Herbicidal ratio of 90% or more (almost completely withered)). For the same compound, the “R: herbicidal effect on Veronica persica” value (Veronica persica) was 4 (Herbicidal ratio of 70% or more and less than 90%), the “f: effect on crop” value [3] was 5 (Herbicidal ratio of 90% or more (almost completely withered)) and the “b: effect on crop” value [4] was 5 (Herbicidal ratio of 90% or more (almost completely withered)). For the same compound, the “g: effect on crop” value (Brassica campestris L.) was 4 (Herbicidal ratio of 70% or more and less than 90%), the “e: effect on crop, Triticum aestivum” value (Triticum aestivum) was 4 (Herbicidal ratio of 70% or more and less than 90%) and the “c: effect on crop, Zea mays” value (Zea mays) was 3 (Herbicidal ratio of 40% or more and less than 70%). For the same compound, the “d: effect on crop, Glycine max” value (Glycine max) was 4 (Herbicidal ratio of 70% or more and less than 90%) and the “b (effect on crop grade)” value [5] was 2 (Herbicidal ratio of 20% or more and less than 40%).
